The record followed here is ChEMBL document CHEMBL5113378, “Role of basic aminoalkyl chains in the lead optimization of Indoloquinoline alkaloids” (Eur J Med Chem, 2022).

Series [1] has as its system MCF7. Kind of series: Antiproliferative activity against human MCF7 cells assessed as cell growth inhibition. The format is functional, cell-based.
The test system of series [2] is HeLa. Kind of series: Antiproliferative activity against human HeLa cells assessed as cell growth inhibition. The format is functional, cell-based.
Series [3] deals with DU-145. Briefly: Antiproliferative activity against human DU-145 cells assessed as cell growth inhibition. The format is functional.
The subject of series [4] is A549. Briefly: Antiproliferative activity against human A549 cells assessed as cell growth inhibition. It counts as functional, cell-based.
Series [5] deals with Trypanosoma brucei. Kind of series: Antitrypanosomal activity against Trypanosoma brucei assessed as parasite growth inhibition. It counts as functional, organism-based.
Series [6] concerns the target DNA topoisomerase 2-beta (Homo sapiens) (UniProt Q02880). Briefly: Inhibition of human topoisomerase-2-beta.
Series [7] is described as follows: Selectivity index, ratio of IC50 for rat L6 cells to IC50 for Plasmodium falciparum NF54. The following applies: read-out: Ratio IC50. It counts as toxicity.
Series [8] is described as follows: Cytotoxicity against rat L6 cells assessed as cell growth inhibition. The format is toxicity, cell-based.
The subject of series [9] is Plasmodium falciparum. Briefly: Antimalarial activity against Plasmodium falciparum NF54 assessed as parasite growth inhibition. It counts as functional, organism-based.
In series [10] the test system is Plasmodium falciparum. Kind of series: Antimalarial activity against Plasmodium falciparum K1 assessed as parasite growth inhibition. It counts as functional, organism-based.
Series [11] in a line: Selectivity index, ratio of IC50 for rat L6 cells to IC50 for Plasmodium falciparum K1. The format is toxicity. The following applies: read-out: Ratio IC50.
Series [12] relates to Hemozoin. Kind of series: Inhibition of beta-hematin formation.
Series [13] has as its system SK-OV-3. Kind of series: Cytotoxicity against human SK-OV-3 cells assessed as cell growth inhibition. It counts as functional, cell-based.
Series [14] concerns A2780. Kind of series: Cytotoxicity against drug resistant human A2780 cells assessed as cell growth inhibition. It counts as functional, cell-based.
Series [15] deals with A2780. Briefly: Cytotoxicity against human A2780 cells assessed as cell growth inhibition. It counts as functional, cell-based.
The subject of series [16] is CH1. Briefly: Cytotoxicity against human CH1 cells assessed as cell growth inhibition. It counts as functional, cell-based.
Series [17] has as its target Telomerase reverse transcriptase (Homo sapiens, UniProt O14746). Briefly: Inhibition of telomerase derived from human K562 cell extract incubated for 30 mins by TRAP assay. The format is cell-free.
The subject of series [18] is CH1. Briefly: Cytotoxicity against drug resistant human CH1 cells assessed as cell growth inhibition. It counts as functional, cell-based.
Series [19] relates to Plasmodium falciparum. Kind of series: Antimalarial activity against multi-drug resistant Plasmodium falciparum K1 assessed as parasite growth inhibition by microdilution method. It counts as functional, organism-based.
Series [20] relates to HCT-116. Briefly: Antiproliferative activity against human HCT-116 cells assessed as cell growth inhibition. It counts as functional, cell-based.
Series [21] in a line: Selectivity index, ratio of CC50 for rat L6 cells to IC50 for Plasmodium falciparum K1 […]. It counts as toxicity, cell-based. The following applies: read-out: Ratio CC50/IC50.
Series [22] has as its system Plasmodium falciparum. Briefly: Antimalarial activity against Plasmodium falciparum K1 […] assessed as parasite growth inhibition. The format is functional, organism-based.
Series [23] has as its system MOLT-3. Kind of series: Antiproliferative activity against human MOLT-3 cells assessed as cell growth inhibition. It counts as functional, cell-based.
Series [24] in a line: Selectivity index, ratio of CC50 for human Huh-7 cells to IC50 for Plasmodium falciparum 3D7. It counts as toxicity. The note with it: read-out: Ratio CC50/IC50.
For series [25], the system named is Plasmodium falciparum. Briefly: Antimalarial activity against Plasmodium falciparum 3D7 assessed as parasite growth inhibition incubated for 48 hrs by SYBR green dye based fluorescence assay. The following applies: 3D7, 48 h. The format is functional, organism-based.
Series [26] concerns Plasmodium falciparum. Briefly: Antimalarial activity against Plasmodium falciparum Dd2 assessed as parasite growth inhibition incubated for 48 hrs by SYBR green dye based fluorescence assay. It counts as functional, organism-based. The following applies: Dd2, 48 h.
Series [27] concerns Plasmodium falciparum. Briefly: Antimalarial activity against Plasmodium falciparum INDO assessed as parasite growth inhibition incubated for 48 hrs by SYBR green dye based fluorescence assay. It counts as functional, organism-based.
Series [28] concerns Plasmodium berghei. Briefly: Antimalarial activity against Plasmodium berghei ANKA infected in BALB/c mouse assessed as parasite growth inhibition at 50 mg/kg, po administered for 4 consecutive days measured for 7 to 13 days by geimsa dye based microscopy relative to control. It counts as functional. More on the design: scale not given: the % may be the effect or the level left. The note with it: time 7-13 day.

Series [29] relates to Hemozoin. Kind of series: Inhibition of detergent-mediated beta-hematin formation incubated for 6 hrs by multiwell plate reader analysis.
Series [30] relates to Jurkat. Kind of series: Antiproliferative activity against human Jurkat cells assessed as cell growth inhibition incubated for 4 days by sulphorhodamine assay. It counts as functional, cell-based. The note with it: 96 h.
For series [31], the system named is P388. Briefly: Antiproliferative activity against mouse P388 cells assessed as cell growth inhibition by measuring [3H]TdR uptake incubated for 3 days. The format is functional, cell-based.
Series [32] can be described thus: Antiproliferative activity against […] LLTC cells assessed as cell growth inhibition incubated for 4 days by sulphorhodamine assay. The note with it: LLTC cell line, 96 h. It counts as functional, cell-based.
In series [33] the test system is HCT-116. Briefly: Antiproliferative activity against human HCT-116 cells assessed as cell growth inhibition incubated for 96 hrs by MTS assay. The format is functional, cell-based. The following applies: HCT-116, 96 h. Background: Formazan colour is commonly taken as a measure of viable cells.
Series [34] has as its system Plasmodium berghei. Kind of series: Antimalarial activity against Plasmodium berghei NK65 infected in Webster Swiss mouse assessed as parasite growth inhibition at 50 mg/kg/day, po for 5 days by geimsa dye based microscopy relative to control. It counts as functional. More on the design: scale not given: the % may be the effect or the level left. The following applies: time 5 day.

Where only a bound is given, the exact number is not on record here.

A word on the GI50: it is the concentration at which growth is held to half of that of the control. In general, IC50 refers to the point on the concentration scale where inhibition reaches its midpoint.

Chain of Telomerase reverse transcriptase (O14746 whole entry): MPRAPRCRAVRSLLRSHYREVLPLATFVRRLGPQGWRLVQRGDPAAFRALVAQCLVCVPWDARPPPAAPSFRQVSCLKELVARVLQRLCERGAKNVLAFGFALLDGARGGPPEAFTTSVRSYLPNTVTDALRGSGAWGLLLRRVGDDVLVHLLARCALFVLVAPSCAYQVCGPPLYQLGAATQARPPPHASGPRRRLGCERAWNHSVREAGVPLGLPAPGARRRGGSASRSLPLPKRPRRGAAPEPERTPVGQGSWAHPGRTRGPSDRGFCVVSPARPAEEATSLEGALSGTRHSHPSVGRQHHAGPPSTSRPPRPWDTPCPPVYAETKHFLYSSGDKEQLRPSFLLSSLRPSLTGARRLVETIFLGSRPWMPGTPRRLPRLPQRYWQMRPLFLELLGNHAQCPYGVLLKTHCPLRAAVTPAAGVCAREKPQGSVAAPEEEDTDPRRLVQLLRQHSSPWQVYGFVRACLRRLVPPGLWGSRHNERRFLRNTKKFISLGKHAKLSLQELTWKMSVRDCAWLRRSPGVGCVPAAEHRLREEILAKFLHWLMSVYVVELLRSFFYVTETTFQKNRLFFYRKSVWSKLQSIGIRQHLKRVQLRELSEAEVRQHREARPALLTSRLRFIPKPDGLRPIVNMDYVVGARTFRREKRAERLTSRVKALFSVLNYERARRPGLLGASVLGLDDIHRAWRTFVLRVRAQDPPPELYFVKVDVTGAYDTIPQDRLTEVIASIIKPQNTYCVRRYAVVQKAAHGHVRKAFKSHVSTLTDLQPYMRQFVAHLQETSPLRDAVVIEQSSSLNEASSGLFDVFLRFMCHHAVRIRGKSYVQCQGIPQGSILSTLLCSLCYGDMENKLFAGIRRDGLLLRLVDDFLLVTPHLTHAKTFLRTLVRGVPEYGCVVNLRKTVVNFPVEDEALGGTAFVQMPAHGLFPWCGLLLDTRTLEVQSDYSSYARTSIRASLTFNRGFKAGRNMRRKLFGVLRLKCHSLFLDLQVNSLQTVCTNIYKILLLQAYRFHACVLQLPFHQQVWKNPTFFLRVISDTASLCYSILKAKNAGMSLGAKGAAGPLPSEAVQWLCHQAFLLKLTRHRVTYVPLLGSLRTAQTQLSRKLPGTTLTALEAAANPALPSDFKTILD
Chain of DNA topoisomerase 2-beta (Homo sapiens) (Q02880 whole entry): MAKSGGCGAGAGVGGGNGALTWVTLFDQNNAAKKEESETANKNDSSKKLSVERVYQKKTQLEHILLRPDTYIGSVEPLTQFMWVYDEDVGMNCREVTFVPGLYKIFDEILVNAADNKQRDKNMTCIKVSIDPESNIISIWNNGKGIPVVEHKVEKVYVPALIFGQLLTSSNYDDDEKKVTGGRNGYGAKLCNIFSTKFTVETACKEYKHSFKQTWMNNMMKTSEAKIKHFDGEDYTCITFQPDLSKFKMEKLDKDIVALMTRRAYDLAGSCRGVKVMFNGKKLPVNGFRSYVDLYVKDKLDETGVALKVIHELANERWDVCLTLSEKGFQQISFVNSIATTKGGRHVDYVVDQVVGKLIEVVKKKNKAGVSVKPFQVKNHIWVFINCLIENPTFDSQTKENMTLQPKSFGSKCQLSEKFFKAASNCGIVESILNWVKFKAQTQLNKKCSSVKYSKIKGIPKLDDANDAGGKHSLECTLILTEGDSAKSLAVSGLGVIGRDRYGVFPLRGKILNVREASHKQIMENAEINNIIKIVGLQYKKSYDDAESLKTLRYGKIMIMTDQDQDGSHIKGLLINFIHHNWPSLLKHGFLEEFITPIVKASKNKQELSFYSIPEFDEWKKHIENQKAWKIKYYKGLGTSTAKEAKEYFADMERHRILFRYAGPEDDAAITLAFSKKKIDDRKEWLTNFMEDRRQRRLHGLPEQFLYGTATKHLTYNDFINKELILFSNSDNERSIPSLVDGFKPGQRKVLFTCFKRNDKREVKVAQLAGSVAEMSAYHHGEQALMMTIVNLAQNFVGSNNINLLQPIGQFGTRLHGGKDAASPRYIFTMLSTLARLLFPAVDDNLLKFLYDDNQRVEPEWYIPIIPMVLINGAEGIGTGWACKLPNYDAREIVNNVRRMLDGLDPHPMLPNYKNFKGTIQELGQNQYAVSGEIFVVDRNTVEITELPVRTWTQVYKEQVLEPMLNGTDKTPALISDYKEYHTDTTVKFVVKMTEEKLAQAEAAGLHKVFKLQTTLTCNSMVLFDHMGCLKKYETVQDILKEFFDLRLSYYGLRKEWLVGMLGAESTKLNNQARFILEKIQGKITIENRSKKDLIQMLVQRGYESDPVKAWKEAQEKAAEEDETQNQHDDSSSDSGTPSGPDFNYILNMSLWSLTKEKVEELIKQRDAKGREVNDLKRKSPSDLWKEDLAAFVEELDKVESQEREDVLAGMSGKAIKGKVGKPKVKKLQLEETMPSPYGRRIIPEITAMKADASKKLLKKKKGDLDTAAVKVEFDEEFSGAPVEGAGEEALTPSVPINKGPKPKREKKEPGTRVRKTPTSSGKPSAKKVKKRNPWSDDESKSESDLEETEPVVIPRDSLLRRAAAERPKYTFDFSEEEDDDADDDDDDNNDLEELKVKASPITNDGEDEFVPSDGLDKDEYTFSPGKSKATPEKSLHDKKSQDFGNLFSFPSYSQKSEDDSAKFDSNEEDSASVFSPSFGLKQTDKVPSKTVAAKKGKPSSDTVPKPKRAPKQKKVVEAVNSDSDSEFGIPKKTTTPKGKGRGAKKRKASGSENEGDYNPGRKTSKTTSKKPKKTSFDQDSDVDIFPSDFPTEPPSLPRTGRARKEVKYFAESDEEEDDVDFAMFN

Consider `Cn1c2ccccc2c2c(C(=O)NC3CCCCC3)c3cc(Cl)ccc3nc21`, for which the GI50 in series [1] worked out at 9.7 µM; in series [2], 10.3 µM; in series [3] it was 20.7 µM; in series [4], 7.2 µM.

In the case of `CN(C)c1ccc(C2SCC(=O)N2CCCNc2c3c4ccccc4nc-3n(C)c3ccccc23)cc1` (configuration not stated), the IC50 in [5] was 1.37 µM.

As to `CCCCNc1c2ccccc2[n+](C)c2c1[nH]c1ccccc12`, the IC50 in [1] is 5.9 µM; in [4] it was 0.47 µM. In [6], this compound returned an MIC of 0.5 µM.

On to `CN(C)CCNc1nc2ccccc2c2[nH]c3ccccc3c12`, for which the selectivity ratio in series [7] is 45.8; in series [11], 7.6. Moreover, the IC50 in series [8] turned out to be 0.627 µM; in series [9], 0.0137 µM; in [10], 0.0827 µM; in series [12] it was 627 µM.

`c1ccc2nc3c(cc2c1)[nH]c1ccccc13` [QUINDOLINE]: the IC50 is 66 µM in series [13]; 24.5 µM in [14]; 21.5 µM in [15]; 15.5 µM in series [16]; above 138 µM in series [17]; 30 µM in [18]. Further, the IC50 in [19] is above 229 µM.

Consider `CN(CCCNc1c2ccccc2nc2c1[nH]c1ccccc12)C(=O)c1cccc(B(O)O)c1`, for which the IC50 in [20] came to 15.7 µM.

On to `CN(C)CCc1ccc2nc3c4ccccc4n(CCN(C)C)c3cc2c1`, for which the IC50 in [14] came out at 10.5 µM; in series [15], 12.5 µM; in series [16], 8.4 µM; in series [18] it was 12.5 µM.

The compound `COC(=O)c1ccc2c(c1)c(NCCCN)c1c3ccccc3nc-1n2C` returned an IC50 in [12] of 104 µM.

As for `Cn1c2nc3ccccc3c-2c(NCCCNC(=S)Nc2ccccc2)c2ccccc21`, the selectivity ratio in series [7] turned out to be 135; in series [11], 11. In addition, the IC50 in series [5] is 0.589 µM.

For `COC(=O)c1ccc2nc3n(C)c4ccccc4c(NCCCN)c-3c2c1`, in series [11], the selectivity ratio is 7.2. The compound further had an IC50 in series [12] of 48.9 µM.

Turning to `Cn1c2nc3ccccc3c-2c(NCCCN2C(=O)c3ccccc3SC2c2ccc(Cl)cc2)c2ccccc21` (configuration not stated), in series [7], the selectivity ratio was 361. The IC50 in [9] was 0.0026 µM; in series [5] it was 0.868 µM.

Take `COc1cc2c(cc1CN1CCN(C)CC1)[nH]c1c3ccc(Cl)cc3ncc21`: the IC50 in [10] was 0.0024 µM.

For `Cn1cc2c3ccccc3nc-2c2ccccc21` [ISOCRYPTOLEPINE], the selectivity ratio in [21] turned out to be 1.8. Moreover, the IC50 in series [22] came out at 0.78 µM; in [23] it was 0.73 µM.

As for `O=C(NCCN1CCCCC1)c1c2cc(Br)ccc2nc2c1[nH]c1ccccc12`, the selectivity ratio in series [24] was 46.9. The IC50 is 1.3 µM in series [25], 6.3 µM in series [26], 5 µM in [27] and 840 µM in series [29]. Further, the Activity in series [28] amounted to 27%.

With `NCCCNc1c2ccccc2nc2c1[nH]c1ccccc12`, in [7], the selectivity ratio came out at 16. Moreover, the IC50 in series [12] was determined as 16.8 µM.

In the case of `Cc1cccc2c1c1nc3c(C(=O)NCCN(C)C)cccc3cc1n2C`, the IC50 came out at 0.055 µM in [30], 0.02 µM in series [31] and 0.018 µM in series [32].

On to `CN(C)CCNc1c2ccccc2nc2c1[nH]c1ccccc12`, for which 1.12 µM corresponded to half-maximal inhibition in series [17] (IC50).

Regarding `CCN(CC)CCOC(=O)c1ccc2c(c1)c1c(c(=O)c3ccccc3n1CCN(CC)CC)n2CCN(CC)CC`, the IC50 in series [33] was 4.5 µM.

On to `Cn1c2nc3ccccc3c-2c(NCC(C)(C)CNC(=S)Nc2ccccc2)c2cc(Cl)ccc21`, for which the selectivity ratio in series [7] is 164. For the same compound, the results for the IC50 in [8], in series [9] and in series [12] were 3.27 µM, 0.019 µM and 34.1 µM, respectively.

As to `Cn1c2nc3ccccc3c-2c(NCCCN)c2ccccc21`, in [7], the selectivity ratio came out at 3.5.

For `C=CCn1c2ccccc2c2c(C(=O)NC3CCCCC3)c3cc(F)ccc3nc21`, the GI50 came to 11.9 µM in series [1], 9.9 µM in series [2], 9.4 µM in series [3] and 7.7 µM in series [4].

In the case of `C[n+]1c2ccccc2c(NC2CCNCC2)c2[nH]c3ccccc3c21`, the Activity in [34] is recorded as 55%.
